Assay results taken from patent EP4603105A1, “PHARMACEUTICAL COMPOSITION CONTAINING CYCLIC COMPOUND HAVING SELECTIVE KRAS INHIBITORY EFFECT AGAINST HRAS AND NRAS” (CHUGAI SEIYAKU KABUSHIKI KAISHA, priority 2022, dated 2024).
Where a SMILES comes first, the peptide text is derived from it. Bridges are numbered along the chain shown (N, C = ends). [ ]: non-standard residue; d: D form. The star is where a group is joined. hPhe(3-Cl-4-CF3) = N[C@@H](CCc1ccc(C(F)(F)F)c(Cl)c1)C(=O)O; NPrPhe(4-CF3) = CCCN[C@@H](Cc1ccc(C(F)(F)F)cc1)C(=O)O; NMeGly(cPent) = CN[C@H](C(=O)O)C1CCCC1; Pro(4,4-F2) = O=C(O)[C@@H]1CC(F)(F)CN1; Pro(4,4-Me2) = CC1(C)CN[C@H](C(=O)O)C1; NMeD = CN[C@@H](CC(=O)O)C(=O)O; NMeL = CN[C@@H](CC(C)C)C(=O)O; NMeNva = CCC[C@H](NC)C(=O)O; Morpholide = C1CN(*)CCO1; NMeA = CN[C@@H](C)C(=O)O; Ac5c = NC1(C(=O)O)CCCC1; Aze = O=C(O)[C@@H]1CCN1; NEtG = CCNCC(=O)O; Sar = CNCC(=O)O

Tests used:
[1] = target: GDP-bound NRAS wild-type protein (Homo sapiens, UniProt P01111); assay: Binding to NRAS by surface plasmon resonance (SPR), KD and KD ratio to KRAS
Chain of GDP-bound NRAS wild-type protein (P01111 whole entry): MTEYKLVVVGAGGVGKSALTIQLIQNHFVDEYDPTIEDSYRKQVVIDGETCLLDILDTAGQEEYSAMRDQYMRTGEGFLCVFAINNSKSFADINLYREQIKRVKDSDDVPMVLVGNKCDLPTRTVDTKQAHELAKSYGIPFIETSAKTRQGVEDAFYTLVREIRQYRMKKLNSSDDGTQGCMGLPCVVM
Procedure, shortened: (§1)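 GDP-loaded biotinylated Avi-tag RAS proteins (E. coli-expressed) captured on a Biotin CAPture chip at ~100–300 RU; single-cycle kinetics at 30°C, 100 µL/min, 75 s injections of rising compound concentrations. HBS pH 7.4 running buffer with 1 mM DTT, 10 mM MgCl2, 10 µM GDP, 4% DMSO. KD from 1:1 binding fit.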

HRAS wild-type protein = HRAS wild-type protein (Homo sapiens, UniProt P01112); assay: Binding to HRAS by surface plasmon resonance (SPR), KD and KD ratio to KRAS
Chain of HRAS wild-type protein (P01112 whole entry): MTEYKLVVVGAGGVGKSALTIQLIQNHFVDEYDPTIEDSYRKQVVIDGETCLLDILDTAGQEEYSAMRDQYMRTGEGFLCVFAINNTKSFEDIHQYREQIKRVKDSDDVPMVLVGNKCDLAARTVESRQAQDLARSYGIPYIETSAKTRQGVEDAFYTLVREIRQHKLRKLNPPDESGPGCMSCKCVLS
Procedure, shortened: as §1

[2] = test system: human lung cancer strain NCI-H441; type: cell-based
Procedure, shortened: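 Readout: […] after the ATP-based reagent. Compound: serial dilutions in dimethyl sulfoxide.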

[3] = ratio of the KD value with respect to GDP-bound NRAS wild-type protein to the KD value with respect to KRAS
[4] = ratio of the KD value with respect to HRAS wild-type protein to the KD value with respect to KRAS
[5] = ratio of KD value for GDP-bound NRAS wild-type protein to KD value for KRAS (SPR)
[6] = ratio of KD value for HRAS wild-type protein to KD value for KRAS (SPR)
[7] = ratio of KD for GDP-bound NRAS wild-type protein to KD for KRAS
[8] = ratio of KD for HRAS wild-type protein to KD for KRAS

| Compound | NRAS /KRAS [1, 3] | HRAS /KRAS (HRAS wild-type protein; [4]) | IC50 [2] [nM] | NRAS /KRAS [1, 5] | HRAS /KRAS (HRAS wild-type protein; [6]) | NRAS /KRAS [1, 7] | HRAS /KRAS (HRAS wild-type protein; [8]) |
| --- | --- | --- | --- | --- | --- | --- | --- |
| CCCN1C(=O)CN(C)C(=O)CN(CC)C(=O)[C@H]([C@@H](C)CC)NC(=O)[C@H](CC(C)C)N(C)C(=O)C[C@@H](C(=O)N2CCOCC2)N(C)C(=O)[C@H](C2CCCC2)N(C)C(=O)C2(CCCC2)NC(=O)[C@@H]2CC(F)(F)CN2C(=O)[C@H](CCc2ccc(C(F)(F)F)c(Cl)c2)NC(=O)CN(C)C(=O)[C@@H]1Cc1ccc(C(F)(F)F)cc1 [PP0399] ([NMeL]I[NEtG][Sar][NPrPhe(4-CF3)][Sar][hPhe(3-Cl-4-CF3)][Pro(4,4-F2)][Ac5c][NMeGly(cPent)][NMeD]-Morpholide; lactam N-11) | B (a compound having 3 or more and less than 10 is denoted as B) | C (A compound having a KD ratio of 0.1 or more and less than 3 is denoted as C) | 6.3 | – | – | – | – |
| CCO[C@@H]1C[C@H]2C(=O)NC3(CC(C)(C)C3)C(=O)N(C)[C@@H](C3CCCC3)C(=O)N(C)[C@H](C(=O)N(C)C)CC(=O)N(C)[C@@H](C(C)C)C(=O)N[C@@H]([C@@H](C)CC)C(=O)N(C)CC(=O)N(C)[C@H]3C/C=C\CCN(C3=O)[C@@H](Cc3ccc(C(F)(F)F)cc3)C(=O)N(C)CC(=O)N[C@@H](CCc3ccc(C(F)(F)F)c(OC)c3)C(=O)N2C1 [PP1979] | AA (a compound having 20 or more is denoted as AA) | A (a compound having 10 or more and less than 20 is denoted as A) | 12.5 | – | – | – | – |
| CC[C@H](C)[C@@H]1NC(=O)[C@H](C2CCC2)N(C)C(=O)C[C@@H](C(=O)N(C)CC)N(C)C(=O)[C@H](C2CCCC2)N(C)C(=O)C2(CCC2)NC(=O)[C@@H]2C[C@H](C)CN2C(=O)[C@H](CCc2ccc(C(F)(F)F)c(OC)c2)NC(=O)CN(C)C(=O)[C@H](Cc2ccc(C(F)(F)F)cc2)N2CC/C=C\C[C@@H](C2=O)N(C)C(=O)CN(C)C1=O [PP2071] | A (a compound having 10 or more and less than 20 is denoted as A) | A (a compound having 10 or more and less than 20 is denoted as A) | 6.2 | – | – | – | – |
| CCCN1C(=O)CN(C)C(=O)CN(CC)C(=O)[C@H]([C@@H](C)CC)NC(=O)[C@H](CC(C)C)N(C)C(=O)C[C@@H](C(=O)N(C)C)N(C)C(=O)[C@H](C2CCCC2)N(C)C(=O)C2(CCCC2)NC(=O)[C@@H]2CC(F)(F)CN2C(=O)[C@H](CCc2ccc(C(F)(F)F)c(Cl)c2)NC(=O)CN(C)C(=O)[C@@H]1Cc1ccc(C(F)(F)F)cc1 [PP0425] ([NMeL]I[NEtG][Sar][NPrPhe(4-CF3)][Sar][hPhe(3-Cl-4-CF3)][Pro(4,4-F2)][Ac5c][NMeGly(cPent)][NMeD]-NMe2; lactam N-11) | B (a compound having 3 or more and less than 10 is denoted as B) | C (A compound having a KD ratio of 0.1 or more and less than 3 is denoted as C) | 6.5 | – | – | – | – |
| CCO[C@@H]1C[C@H]2C(=O)NC3(CC(F)(F)C3)C(=O)N(C)[C@@H](C(CC)CC)C(=O)N(C)[C@H](CC)CC(=O)N(C)[C@@H](CC)C(=O)N[C@@H]([C@@H](C)CC)C(=O)N(C)CC(=O)N(C)[C@H]3C/C=C\CCN(C3=O)[C@@H](Cc3ccc(C(F)(F)F)cc3)C(=O)N(C)CC(=O)N[C@@H](CCc3cc(F)c(C(F)(F)F)c(F)c3)C(=O)N2C1 [PP1626] | – | – | 108 | A (a compound having 10 or more and less than 20 is denoted as A) | A (a compound having 10 or more and less than 20 is denoted as A) | – | – |
| CCC[C@H]1C(=O)N[C@@H](C(CC)CC)C(=O)N(C)CC(=O)N(C)[C@H]2C/C=C\CCN(C2=O)[C@@H](Cc2ccc(C)cc2)C(=O)N(C)CC(=O)N[C@@H](CCc2ccc(C(F)(F)F)c(Cl)c2)C(=O)N2C[C@H](OCC)C[C@H]2C(=O)NC2(CC(C)(C)C2)C(=O)N(C)[C@@H](CC(C)(C)C)C(=O)N(C)[C@H](C(=O)N(C)C)CC(=O)N1C [PP2207] | A (a compound having 10 or more and less than 20 is denoted as A) | A (a compound having 10 or more and less than 20 is denoted as A) | 25.8 | – | – | – | – |
| CCCN1C(=O)CN(C)C(=O)CNC(=O)[C@H]([C@@H](C)CC)NC(=O)[C@H](CC(C)C)N(C)C(=O)C[C@@H](C(=O)N2CCOCC2)N(C)C(=O)[C@H](C2CCCC2)N(C)C(=O)C2(CCCC2)NC(=O)[C@@H]2CCCN2C(=O)[C@H](CCc2ccc(C(F)(F)F)c(Cl)c2)NC(=O)CN(C)C(=O)[C@@H]1Cc1ccc(C(F)(F)F)cc1 [PP0155] ([NMeL]IG[Sar][NPrPhe(4-CF3)][Sar][hPhe(3-Cl-4-CF3)]P[Ac5c][NMeGly(cPent)][NMeD]-Morpholide; lactam N-11) | – | – | 2.8 | – | – | B (a compound having 3 or more and less than 10 is denoted as B) | C (A compound having a KD ratio of 0.1 or more and less than 3 is denoted as C) |
| CCCN(C)C(=O)[C@@H]1CC(=O)N(C)[C@@H](C2CC2)C(=O)N[C@@H]([C@@H](C)CC)C(=O)N(C)CC(=O)N(C)[C@H]2C/C=C\CCN(C2=O)[C@@H](Cc2ccc(C(F)(F)F)cc2)C(=O)N(C)CC(=O)N[C@@H](CCc2ccc(C(F)(F)F)c(OC)c2)C(=O)N2C[C@@H](C)C[C@H]2C(=O)NC2(CCC2)C(=O)N(C)[C@@H](C2CCCC2)C(=O)N1C [PP2070] | A (a compound having 10 or more and less than 20 is denoted as A) | A (a compound having 10 or more and less than 20 is denoted as A) | 11.3 | – | – | – | – |
| CCCOC[C@H]1C(=O)N[C@@H]([C@@H](C)CC)C(=O)N(C)CC(=O)N(C)[C@H]2C/C=C\CCN(C2=O)[C@@H](Cc2ccc(C(F)(F)F)cc2)C(=O)N(C)CC(=O)N[C@@H](CCc2cc(F)c(C(F)(F)F)c(F)c2)C(=O)N2C[C@H](OCC)C[C@H]2C(=O)NC2(CCC2)C(=O)N(C)[C@@H](C2CCCC2)C(=O)N(C)[C@H](C(=O)N(C)CCC)CC(=O)N1C [PP1668] | – | – | 5.3 | A (a compound having 10 or more and less than 20 is denoted as A) | A (a compound having 10 or more and less than 20 is denoted as A) | – | – |
| CCC[C@H]1C(=O)N[C@@H]([C@@H](C)CC)C(=O)N(C)[C@@H](C)C(=O)N2CC[C@H]2C(=O)N(CCC)[C@@H](Cc2ccc(C(F)(F)F)cc2)C(=O)N(C)CC(=O)N[C@@H](CCc2ccc(C(F)(F)F)c(Cl)c2)C(=O)N2CC(F)(F)C[C@H]2C(=O)NC2(CCCC2)C(=O)N(C)[C@@H](C2CCCC2)C(=O)N(C)[C@H](C(=O)N2CCOCC2)CC(=O)N1C [PP0205] ([NMeNva]I[NMeA][Aze][NPrPhe(4-CF3)][Sar][hPhe(3-Cl-4-CF3)][Pro(4,4-F2)][Ac5c][NMeGly(cPent)][NMeD]-Morpholide; lactam N-11) | – | – | 4.6 | – | – | C (A compound having a KD ratio of 0.1 or more and less than 3 is denoted as C) | C (A compound having a KD ratio of 0.1 or more and less than 3 is denoted as C) |
| CCCN1C(=O)[C@@H]2CCN2C(=O)CN(C)C(=O)[C@H]([C@@H](C)CC)NC(=O)[C@H](CC(C)C)N(C)C(=O)C[C@@H](C(=O)N2CCOCC2)N(C)C(=O)[C@H](C2CCCC2)N(C)C(=O)C2(CCCC2)NC(=O)[C@@H]2CC(C)(C)CN2C(=O)[C@H](CCc2ccc(C(F)(F)F)c(Cl)c2)NC(=O)CN(C)C(=O)[C@@H]1Cc1ccc(C(F)(F)F)cc1 [PP0456] ([NMeL]I[Sar][Aze][NPrPhe(4-CF3)][Sar][hPhe(3-Cl-4-CF3)][Pro(4,4-Me2)][Ac5c][NMeGly(cPent)][NMeD]-Morpholide; lactam N-11) | C (A compound having a KD ratio of 0.1 or more and less than 3 is denoted as C) | C (A compound having a KD ratio of 0.1 or more and less than 3 is denoted as C) | 7 | – | – | – | – |
